Results on three compounds are retold here after PubChem BioAssay (NCI).

Where “and” joins values, the source holds several entries; their conditions need not be identical. Equal values may be shown once.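 Cultured in 96-well plates, cells were exposed to test compound for 48 hours across five concentrations. Abbreviation: GI50, concentration required for 50% inhibition of growth. TGI: total growth inhibition.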 Calls of active or inactive are those of the source. Cut-off read from the data, not from the text of the source: active = GI50 below about 0.43 µM; inactive = the rest.

Holding throughout (experiment): inhibition of tumour cell growth, NCI panel, 48 h
Experiment [1] has as its system NCI/ADR-RES ovarian.
Experiment [2] deals with KM20L2 colon.
In experiment [3] the test system is UACC-62 melanoma.
For experiment [4], the system named is RXF 393 renal.
Experiment [5] has as its system HOP-62 NSCLC.
The subject of experiment [6] is 786-0 renal.
Experiment [7] relates to NCI-H23 lung.
In experiment [8] the test system is HL-60(TB) leukemia.
Experiment [9] deals with CCRF-CEM leukemia.

On to `COc1c(OC(C)C)cc2cc(O)c(C(=O)NC3Cc4ccc(c(Cl)n4)O[C@@H]4C=C5C#C/C(=C\C#CC6OC56C4OC4CC(C)(O)C(O)C(C)O4)C(OC4CC(O)C(N(C)C)C(C)O4)COC3=O)cc2c1OC` (stereo partly drawn), for which the TGI in [1] was > 36.3 µM; in [3], 21 µM and 7.44 µg/mL; in [4] it was > 36.3 µM and 1.92 µg/mL; in experiment [5], > 36.3 µM and 1.74 µg/mL; in experiment [6] it was > 36.3 µM and 2.79 µg/mL; in [7] it was > 36.3 µM and 1.79 µg/mL. Besides, the TGI in experiment [8] is > 36.3 µM and 0.336 µg/mL; in experiment [9], > 36.3 µM and 5.33 µg/mL. For the same compound, the outcome in experiment [2] was inactive. Besides, the GI50 in experiment [3] was 4.33 µM and 0.511 µg/mL; in [4], 0.568 µg/mL; in experiment [5], 10.3 µM and 0.402 µg/mL; in experiment [6] it was 7.1 µM and 0.244 µg/mL; in [7] it was 6.32 µM and 0.296 µg/mL; in [8], 27.5 µM and 0.019 µg/mL. Besides, the GI50 in experiment [9] was 4.34 µM and 0.0317 µg/mL.

Take `O=c1[nH]c2ccccc2n1C1CCN(CCCC(c2ccc(F)cc2)c2ccc(F)cc2)CC1`: the GI50 in experiment [1] is 1.46 µM and 3.2 µM; in experiment [3] it was 1.38 µM and 9.92 µM; in experiment [4] it was 1.17 µM and 1.93 µM; in experiment [5], 1.53 µM; in experiment [6] it was 1.75 µM and 2.79 µM; in [7] it was 1.51 µM and 9.1 µM. The GI50 in [8] is 1.82 µM; in [9], 2.3 µM. Also, the TGI in experiment [1] is 2.96 µM and 13.2 µM; in [2] it was 5.87 µM; in [3], 2.75 µM and 23.5 µM; in experiment [4], 2.44 µM and 5.8 µM; in [5] it was 2.89 µM and 22.3 µM; in experiment [6], 3.38 µM and 7.58 µM. Also, the TGI is 3.18 µM and 24.3 µM in [7]; 4.4 µM and 11.9 µM in experiment [8]; 6.76 µM and 30.3 µM in experiment [9].

With `CC(C)(C)c1cc(C(=O)O)c2c(c1)C(=O)OC2(c1ccccc1)c1ccccc1C(=O)O` (stereo not drawn), in experiment [1], the GI50 is > 100 µM. For the same compound, the TGI in experiment [1], in experiment [2], in [3], in experiment [4], in [5] and in experiment [6] was > 100 µM each time. Besides, the TGI in experiment [7], in experiment [8] and in [9] was > 100 µM each time.
